Source: US9632075B2, “Prevention or attenuation of neuropathic pain by bile acids” (Metselex, Inc., priority 2011, dated 2017)

Tests used:
Assay type in all cases: in vivo, rat
paw withdrawal threshold = assay: von Frey testing for tactile hypersensitivity after SNL; conditions: for withdrawal threshold of the ipsilateral hindpaw: TUDCA 300 mg/kg i.p.
From the text: (§1) Rats were divided into two experimental groups: a group in which the L5 spinal nerve was ligated and cut, and a sham-operated control group. The left L5 spinal nerve was isolated, tightly ligated and cut distal to the ligation under isoflurane anesthesia (1.5%). The surgical procedure for the sham-operated group was identical to that of the SNL group, except that the L5 spinal nerve was not ligated or cut. General behavior of the rats was monitored before and after the surgery. Any rats showing difficulty elevating a hindpaw were discarded from the study.
(§2) Rats were treated with 5,7-dihydroxytryptamine (5,7-DHT: 100 μg/10 μl, intracisternal injection) to induce loss of RVM serotonergic neurons. Rats were randomly assigned to one of four groups for these experiments: (1) L5 SNL with 5,7-DHT; (2) L5 SNL with vehicle injection; (3) sham with 5,7-DHT; and (4) sham with vehicle. Injections were given ten days after surgery; animals receiving vehicle injections received sterile saline (10 μl, intracisternal injection). To prevent damage to noradrenergic (NE) neurons, the inventors pre-treated animals 30 minutes before 5,7-DHT and saline administration with desipramine (20 mg/kg i.p.), an inhibitor of neuronal NE reuptake. To test the effects of inhibiting apoptosis on SNL, the inventors administered a systemically active inhibitor of apoptosis, tauroursodeoxycholic acid (TUDCA) (300 mg/kg i.p. or saline prior to and after surgery. For each group, injections were given every-other day, starting 3 days prior to surgery and continuing until sacrifice. To confirm the efficacy of TUDCA, the inventors tested its effects on dexamethasone-induced apoptosis in thymus. Two TUDCA injections (300 mg/kg i.p.) were given: one to two days prior to dexamethasone (1 mg/kg i.p.) administration and one the day of dexamethasone administration. Control animals were given saline injections instead of TUDCA solution. Rats were killed one day after dexamethasone administration.
Mechanical sensitivity was determined by measuring the paw withdrawal threshold in response to the application of von Frey filaments, using the up-down method of Chaplan. In brief, rats were placed on a wire mesh surface, covered by an inverted plastic cage and allowed to habituate for 15 min. Filaments were then applied to the plantar surface of the hindpaw. If application of the filament evoked no response, the next-larger filament was applied; if application elicited withdrawal, the next-smaller filament was applied. This sequence was repeated until the largest filament was used or until four filaments were applied after the first withdrawal was noted. Withdrawal thresholds were measured prior to surgery and at 2-3 day intervals after surgery. In all cases, thresholds were measured bilaterally.

thymus = assay: dexamethasone-induced apoptosis in thymus (caspase-3 labeling); conditions: TUDCA 300 mg/kg i.p., two injections; dexamethasone 1 mg/kg i.p.
Experimental: as §2, with “Rats were killed one day after dexamethasone administration.” left out

RVM neurons = assay: number of RVM neurons after spinal nerve ligation (SNL), stereological cell counting
From the text: as §1, §2
(§3) The RVM and spinal cord were sectioned using a freezing microtome (Leica, SM2400) at a nominal thickness of 50 μm. […]

RVM 5-HT neurons = assay: number of RVM 5-HT (TPH-ir) neurons after SNL, stereological cell counting
From the text: as §1, §2, §3

RVM glia = assay: number of RVM glia after SNL (Nissl-stained tissue); conditions: SNL rats
From the text: as §1, §2
Conventional microscopy was used to collect images of the RVM for cell counting. An Olympus BX50 fluorescence microscope (Tokyo, Japan) equipped with filter sets designed to allow selective visualization of Cy2 and Cy3 was used. Microscopic images were collected with a Scion 1346 digital camera. Confocal images were collected using an Olympus FluoView FV1000 microscope (Tokyo, Japan). ImageJ 1.29 (developed at NIH and available at http://rsb.info.nih.gov/ij/) or Photoshop were used to adjust contrast and brightness in images. […]
stereological methods were used for quantification as described previously. […] The sampling interval thereafter was determined based on the number of sections within the RVM and was usually every sixth section. […]

SMILES	mechanical hypersensitivity after SNL (paw withdrawal threshold; 5,7-DHT 100 μg/10 μl intracisternal injection ten days after surgery)	caspase-3 labeling in thymus compared to dexamethasone alone (thymus)	number of RVM neurons ipsilateral to the lesion (RVM neurons; SNL rats, TUDCA 300 mg/kg i.p. every-other day, ipsilateral, vehicle 12,540±930)	number of RVM neurons contralateral to SNL (RVM neurons; SNL rats, TUDCA 300 mg/kg i.p., contralateral, saline 16,949±1,074)	number of RVM neurons ipsilateral, higher than in vehicle-treated SNL rats (RVM neurons; ipsilateral, p<0.05, n=8)	number of RVM 5-HT neurons contralateral to SNL (RVM 5-HT neurons; SNL rats, TUDCA 300 mg/kg i.p., contralateral)	number of RVM 5-HT neurons ipsilateral to SNL (RVM 5-HT neurons; SNL rats, TUDCA 300 mg/kg i.p., ipsilateral, vehicle 1,043±118)	number of RVM 5-HT neurons ipsilateral, higher than in vehicle-treated rats (RVM 5-HT neurons; ipsilateral, p<0.05, n=8)	withdrawal threshold of the ipsilateral hindpaw (paw withdrawal threshold; Day 4 post-SNL, vehicle 1.1±0.3 g)	withdrawal threshold of the ipsilateral hindpaw (paw withdrawal threshold; Day 6 post-SNL, vehicle 1.3±0.2 g)	withdrawal threshold of the ipsilateral hindpaw (paw withdrawal threshold; Day 8 post-SNL, vehicle 1.2±0.3 g)	withdrawal threshold of the ipsilateral hindpaw (paw withdrawal threshold; Day 10 post-SNL, vehicle 1.2±0.2 g)	SNL-induced mechanical hypersensitivity (paw withdrawal threshold; TUDCA 300 mg/kg i.p. every-other day)	tactile hypersensitivity one-to-three days after SNL (paw withdrawal threshold; one-to-three days after SNL, TUDCA)	number of RVM glia contralateral after SNL (RVM glia; TUDCA, contralateral, vehicle 80,086±2,899)	number of RVM glia ipsilateral after SNL (RVM glia; TUDCA, ipsilateral, vehicle 85,541±2,972)	RVM glia contralateral, fewer than vehicle (RVM glia; contralateral, p<0.05)	RVM glia ipsilateral, fewer than vehicle (RVM glia; ipsilateral, p<0.05, n=7 TUDCA, n=6 vehicle)
NCCc1c[nH]c2c(O)cc(O)cc12 [5,7-DHT, 5,7-dihydroxytryptamine]	partially reversed	–	–	–	–	–	–	–	–	–	–	–	–	–	–	–	–	–
C[C@H](CCC(=O)NCCS(=O)(=O)O)[C@H]1CC[C@H]2[C@@H]3[C@@H](O)C[C@@H]4C[C@H](O)CC[C@]4(C)[C@H]3CC[C@]12C [TUDCA, tauroursodeoxycholic acid]	–	marked decrease	17,976±1,202	16,675±828	43%	1,251±99	1,353±96	30%	3.5 ± 0.5 g	4.0 ± 0.5 g	4.6 ± 1.1 g	5.2 ± 1.3 g	partially reversed	does not reduce hypersensitivity	60,437±4,315	62,306±3,736	25%	27%
